Laboratory results: patent US6043283A, “Tyramine compounds and their neuronal effects” (priority 1997, dated 2000)
Entries after “also recorded” stand apart in the source; their conditions may differ. Structures can show the parent of a compound that is named as a salt. Where two headings read alike, the source gives them in different places.

How the values were obtained:
[1] = system: human microglia stimulated with S5; format: cell-based;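 also: drugs applied at 10 µM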
[2] = system: Aβ1-42-stimulated microglia; format: cell-based, rat
From the text: (§1) Briefly, hippocampal cells obtained from embryonic stage 18 rat fetuses were dispersed mechanically in the presence of 0.125% trypsin and plated onto poly-L-lysine coated glass coverslips in 24 well plates at 250,000 cells per well (resulting in adhering cell densities of about 1250 cells per mm^2) in chemically-defined N2 culture media containing 5% fetal bovine serum. Gradual reduction of serum began on day 10 in vitro with daily 1:1 volume replacements with chemically-defined media, until a final concentration of 0.6% serum was achieved. […] In order to eliminate microglia, cultures were exposed to saporin (sap; a ribosome-inactivating protein; Davis and Wiley, 1989) coupled to acetylated LDL (ac-LDL) at a concentration of 10 μg/ml for 12 hours. […] Cultures depleted of microglia were then exposed to test substances in the presence or absence of exogenous microglia (100,000 cells per culture). […] Controls included cultures without saporin-treatment, cultures without test substances, and cultures with test substances but lacking microglia.
(§2) On day 14 of culture, immediately following saporin treatment, test substances were added to the hippocampal cultures. Synthetic peptide were supplied as 1 mM stock solutions in 0.1 M phosphate buffered saline, pH 7.2, stored for at least 1 week at 4° C. before use. After 72 hours incubation, the cultures were fixed in 4% paraformaldehyde at room temperature for 18 hours and immuno-stained by overnight incubation with a mixture of anti-neurofilament antibodies (NF; SMI-311, 1:600; Stemberger Monoclonals, Inc.) plus anti-MAP-2 (Boehringer Mannheim, 184959; 1:600) at 4° C. in the presence of 2% horse serum and 0.3% triton X-100 to delineate both neuronal cell bodies and neurites. Astroglia were visualized using sheep anti-glial fibrillary acidic protein (GFAP, Sigma) as described by Giulian et al., 1989. Finally, to label all cell nuclei, the coverslips were exposed to 0.01% bisbenzimide (Hoechst 33258; Sigma) in PBS, pH 6.9, and rinsed in distilled water and mounted in glycerin. Immuno-labeled cells per field and nuclei per field were scored at 200X magnification using fluorescence microscopy. Data were expressed as % mean survival expressed in terms of parallel untreated control cultures after scoring at least 20 randomly selected fields for each of 3 coverslips.

NMDA receptor = assay: whole cell current elicited by NMDA in Xenopus oocytes injected with NMDA R1 and R2 subunit cRNAs; format: cell-based; details: for effect on current elicited by NMDA: FIG. 34
From the text: FIG. 34 is a graph shorting the % maximal current peak elicited by NMDA, octopamine and tyramine compounds in the presence of a given NMDA concentration. […].
The precise mechanism of NTox that leads to the destruction of neurons is only partially characterized. Based upon extensive testing with receptor antagonists, it has been discovered that two classes of neurotransmitter receptors are involved--the n-methyl D-aspartate (NMDA) class of […] receptors and the Muscarinic (M receptors) class of cholinergic receptors. […] […]. Further study to determine if tyramine compounds act upon the NMDA receptor itself involved expression of the NMDA receptor complex in Xenopus oocytes and measurement of ionic fluxes across the oocyte membrane that are elicited by NMDA. […] […]. […] Thus, tyramine compounds appear to have several actions, one of which is upon the NMDA receptor.

[3] = system: NTox released by Aβ1-42-stimulated microglia (neuron killing); assay: cells; format: cell-based, rat; details: for neuroprotective activity (structure/function): Example 14
From the text: . Briefly, hippocampal cells obtained from embryonic stage 18 rat fetuses were dispersed mechanically in the presence of 0.125% trypsin and plated onto poly-L-lysine coated glass coverslips in 24 well plates at 250,000 cells per well (resulting in adhering cell densities of about 1250 cells per mm^2) in chemically-defined N2 culture media containing 5% fetal bovine serum. Gradual reduction of serum began on day 10 in vitro with daily 1:1 volume replacements with chemically-defined media, until a final concentration of 0.6% serum was achieved. […]; see FIG. 18). In order to eliminate microglia, cultures were exposed to saporin (sap; a ribosome-inactivating protein; Davis and Wiley, 1989) coupled to acetylated LDL (ac-LDL) at a concentration of 10 μg/ml for 12 hours. […] Cultures depleted of microglia were then exposed to test substances in the presence or absence of exogenous microglia (100,000 cells per culture). […]. Controls included cultures without saporin-treatment, cultures without test substances, and cultures with test substances but lacking microglia.
as §2
The procedures described above and by Giulian et al, 1996, provided for the identification of tyramine compounds as therapeutic agents for neurodegenerative diseases or disorders including, for example, Alzheimer's disease. Cells from the brain of fetal rats were grown in tissue cultures. Microglial populations within the cultures were controlled following the method described in Example 5 above. Known amounts of Aβ peptides coupled to microspheres were added to the culture. The Aβ spheres stimulated the microglia to release NTox, which in turn destroyed the neurons. The neurons in the cultures were monitored for survival by immuno-staining.
Generally, drug assays involve the addition of known concentrations of a test agent over a range of concentrations. After 72 hours, the experiment is stopped and the neurons are identified by immuno-staining. The data is expressed as % neuronal survival […]. Dose response curves are then used to estimate Effective Dose50 % (ED50) of neuroprotective agents. […].
In this experiment, about 65% of the neurons were destroyed by the Aβ-stimulated microglia. […] Other tyramine compounds, including tyrosine esters, were neuroprotective (FIG. 30).
Following the methods described herein, numerous compounds were examined to determine their neuroprotective activity. […]

NTox = assay: protection of neurons against isolated NTox applied directly; format: cell-based; details: isolated NTox; FIGS. 13, 32
From the text: FIG. 32 is a graph showing the specificity of tyramine compounds to NTox. […].
Initial studies to characterize the neuroprotective effect of tyramine compounds employed microglia-neuron co-culture assays in the presence of Aβ or isolated senile plaques. Inhibition of neuron killing in […]--inhibition of microglial activation by Aβ or plaques; inhibition of NTox production and release by microglia; or inhibition of action of NTox upon neurons. […] Effective doses in the low nmolar range show the tyramine compounds to be very potent agents compared with low μmolar range of other neuroprotective drugs under development for neurological disorders.

hippocampal neurons = format: cell-based, rat; details: absence of microglia
From the text: as §1, §2

[4] = system: rat microglia / hippocampal neurons; details: rat microglia, mostly 1 μmole/l
[5] = system: plaque-stimulated microglia; assay: blocking of plaque-induced microglial neurotoxicity; format: cell-based, rat; details: FIG. 16C
rat microglia = assay: binding of Aβ-coupled microspheres to microglia; details: 4 hours at 37° C. (72 h in FIG. 23)
[6] = format: physicochemical; details: chemically defined culture media, 37° C.; Table 2
From the text: Solubility of peptides is described for chemicallydefined culture media a […]

human microglia = assay: induction of neuron-killing human microglia; format: cell-based; details: 1 μmole/liter synthetic peptides
microglia = assay: inhibition of SpheresAβ1-42 binding to microglia; design: species or system rat; details: 10 μmoles/l, 4 hours, 37° C.
Procedure: Spheresmal-BSA (which bind to scavenger receptors) or SpheresAβ1-42 were incubated with microglia for 4 hours following pre-treatment of cells with trypsin (5000 units/ml at 37° C. for 60 min followed by inactivation with soybean trypsin inhibitor), with heparinase (heparin lyase EC 4.2.2.7; two consecutive treatments each of 0.01 units/ml for 60 min), or with chondroitinase ABC (chondroitin ABC lyase EC 4.3.3.4; two consecutive treatments each of 0.02 units/ml for 60 min). […] Microglia mixed with hippocampal neurons were treated with combinations of β-D-xyloside (1 mm), heparinase (0.02 units/ml), or chondroitinase (0.04 units/ml) and then exposed to plaques.
Each well then received 250,000 SpheresAβ1-42 or Spheresmal-BSA in the presence or absence of Aβ peptides, GAGs, or scavenger receptor ligands. Binding assays were carried out at 37° C. for 4 hours after which coverslips were dipped 10 times in phosphate buffer and fixed with 4% buffered paraformaldehyde. Microsphere adherence to cells was scored at 200 magnification with phase/fluorescence microscopy. Data, expressed as % inhibition of sphere binding, was calculated from total number of spheres per field noted for control cultures receiving spheres only. Values are based upon at least 3 coverslips from 2 independent experiments. […] Washed spheres were resuspended in 0.2 M borate buffer (pH 8.5) in the presence of 300 μg Aβ or 400 μg BSA in 6% DMSO. After overnight mixing at room temperature, the spheres were washed extensively and blocked by 1 M glycine (pH 8.0) for 30 minutes.

CC(=N)NCCC[C@H](N)C(=O)O [L-NIO, L-N-5-(1-imino-ethyl)-ornithine hydrochloride]
drug blockade of neuron killing, human microglia ([1]; hydrochloride): no reduction of microglia-mediated neuron killing; also recorded: No protective effects were observed
drug blockade of neuron killing, rat microglia ([2]; hydrochloride): no reduction of microglia-mediated neuron killing; also recorded: No protective effects were observed

N[C@@H](CCC(=O)N[C@@H](CS)C(=O)NCC(=O)O)C(=O)O [glutathione]
drug blockade of neuron killing, human microglia [1]: no reduction of microglia-mediated neuron killing; also recorded: did not block microglial killing of neurons
drug blockade of neuron killing, rat microglia [2]: no reduction of microglia-mediated neuron killing; also recorded: did not block microglial killing of neurons

CC(C(O)c1ccc(O)cc1)N1CCC(Cc2ccccc2)CC1 (stereo not shown) [ifenprodil]
drug blockade of neuron killing, human microglia [1]: blocked neuron death
drug blockade of neuron killing, rat microglia [2]: prevented neuronal loss; also recorded: blocked neuron death

NCC(O)c1ccc(O)cc1 (stereo not shown) [octopamine]
effect on current elicited by NMDA (NMDA receptor): does not alter the current measured
effect on current elicited by NMDA (NMDA receptor; listed as Octopamine): no effect
neuroprotective activity (structure/function) [3]: little or no neuroprotective activity

N[C@@H](Cc1ccc(O)cc1)C(=O)OCc1ccccc1 [tyrosine benzyl ester]
effect on current elicited by NMDA (NMDA receptor): inhibition of NMDA
neuroprotective activity (structure/function) [3]: enhance neuroprotective effects

CC(C)(C)OC(=O)[C@@H](N)Cc1ccc(O)cc1 [tyrosine t-butyl ester]
inhibition of killing action of NTox applied to neurons (NTox): killing action of NTox is inhibited
effect on NMDA-stimulated voltage change across oocyte membrane (NMDA receptor; 300 μM): blocked
effect on current elicited by NMDA (NMDA receptor): inhibition of NMDA
neuroprotective effect ([3]; Aβ1-42-stimulated microglia): most potent neuroprotectant tested
neuroprotective activity (structure/function) [3]: enhance neuroprotective effects
EC50 ([3]; Rattus norvegicus, Aβ-stimulated microglia, 72 h, FIG. 31, read-out: ED50 (neuroprotection)): 2 nM

Aβ1-43: small Aβ peptide (as printed)
direct neurotoxicity without microglia (hippocampal neurons): did not produce neurotoxicity
induction of neurotoxic microglia / neuron killing [4]: did not produce neurotoxicity

Aβ13-20: Aβ peptide residues 13-20 (HHQKLVFF; Amyloid-beta protein 42; UniProt P05067 684-691, looked up, fragment)
IC50 ([2]; read-out: ED50 (blocking of Aβ1-42 induced neurotoxicity), FIG. 16B): 250 nM
blocking of plaque-induced microglial toxicity by peptides [5]: blocked plaque-induced toxicity in vitro

Aβ17-42: Aβ peptide residues 17-42 (LVFFAEDVGSNKGAIIGLMVGGVVIA; Amyloid-beta protein 42; UniProt P05067 688-713, looked up, fragment)
binding of peptide-coupled microspheres to microglia (rat microglia): neither binds to microglia nor elicits toxicity
Solubility [6]: very insoluble

catalase
drug blockade of neuron killing, human microglia [1]: no reduction of microglia-mediated neuron killing; also recorded: did not block microglial killing of neurons
drug blockade of neuron killing, rat microglia [2]: no reduction of microglia-mediated neuron killing; also recorded: did not block microglial killing of neurons

rodent Aβ1-40: rodent Aβ1-40 (5Arg-Gly, 10Tyr-Phe, 13His-Arg) (DAEFGHDSGFEVRHQKLVFFAEDVGSNKGAIIGLMVGGVV; Amyloid-beta protein 40; UniProt P12023 672-711, looked up)
binding of peptide-coupled microspheres to microglia (rat microglia): little cell binding
induction of neurotoxic human microglia (human microglia): inactive
inhibition of SpheresAβ1-42 binding by peptides (microglia): unable to block
induction of neurotoxic microglia / neuron killing [4]: did not activate microglia
induction of neurotoxic microglia / neuron killing ([4]; listed as Aβ1-40rodent): neither
induction of neurotoxic microglia / neuron killing ([4]; listed as Rodent Aβ1-40): did not activate microglia
induction of neurotoxic microglia / neuron killing ([4]; listed as rodent form of Aβ1-40): inactive

vitamin E
drug blockade of neuron killing, human microglia [1]: no reduction of microglia-mediated neuron killing; also recorded: did not block microglial killing of neurons
drug blockade of neuron killing, rat microglia [2]: no reduction of microglia-mediated neuron killing; also recorded: did not block microglial killing of neurons
